Reference: ChEMBL document CHEMBL1933046, “Synthesis and antibacterial activity of a novel series of acylides active against community acquired respiratory pathogens” (2012)
Converted amounts (≈) assume the structure as drawn. The source made the active and inactive calls. The rule behind the calls is not given here.

What was measured:
Streptococcus pneumoniae [1] = experiment: Antibacterial activity against Streptococcus pneumoniae 3579 expressing erm gene by NCCLS method; assay type: functional
Streptococcus pneumoniae [2] = experiment: Antibacterial activity against telethromycin-resistant Streptococcus pneumoniae 3271 expressing erm gene by NCCLS method; assay type: functional
Streptococcus pneumoniae [3] = experiment: Antibacterial activity against telethromycin-resistant Streptococcus pneumoniae 162 expressing erm gene by NCCLS method; assay type: functional
Streptococcus pneumoniae [4] = experiment: Antibacterial activity against telethromycin-resistant Streptococcus pneumoniae 757 expressing erm gene by NCCLS method; assay type: functional
Streptococcus pneumoniae [5] = experiment: Antibacterial activity against Streptococcus pneumoniae 994 expressing mef gene by NCCLS method; assay type: functional
Streptococcus pyogenes = experiment: Antibacterial activity against Streptococcus pyogenes 19615 by NCCLS method; assay type: functional
Streptococcus pneumoniae [6] = experiment: Antibacterial activity against telethromycin-resistant Streptococcus pneumoniae B739 expressing erm gene by NCCLS method; assay type: functional
Streptococcus pneumoniae [7] = experiment: Antibacterial activity against telethromycin-resistant Streptococcus pneumoniae 2840 expressing erm gene by NCCLS method; assay type: functional
Streptococcus pneumoniae [8] = experiment: Antibacterial activity against telethromycin-resistant Streptococcus pneumoniae 5099 expressing erm gene by NCCLS method; assay type: functional
Streptococcus pneumoniae [9] = experiment: Antibacterial activity against telethromycin-resistant Streptococcus pneumoniae 3488 expressing erm gene by NCCLS method; assay type: functional
Moraxella catarrhalis = experiment: Antibacterial activity against Moraxella catarrhalis 8176 by NCCLS method; assay type: functional
Streptococcus pneumoniae [10] = experiment: Antibacterial activity against telethromycin-resistant Streptococcus pneumoniae 5051 expressing erm gene by NCCLS method; assay type: functional
Streptococcus pneumoniae [11] = experiment: Antibacterial activity against telethromycin-resistant Streptococcus pneumoniae 3390 expressing erm gene by NCCLS method; assay type: functional
Streptococcus pneumoniae [12] = experiment: Antibacterial activity against telethromycin-resistant Streptococcus pneumoniae 3489 expressing erm gene by NCCLS method; assay type: functional
Streptococcus pneumoniae [13] = experiment: Antibacterial activity against Streptococcus pneumoniae 49619 by NCCLS method; assay type: functional
Streptococcus pneumoniae [14] = experiment: Antibacterial activity against Streptococcus pneumoniae 3579 expressing erm gene infected in mouse systemic infection model; assay type: functional, organism-based
Streptococcus pneumoniae [15] = experiment: Antibacterial activity against telethromycin-resistant Streptococcus pneumoniae AB14 expressing erm gene by NCCLS method; assay type: functional
Streptococcus pneumoniae [16] = experiment: Antibacterial activity against telethromycin-resistant Streptococcus pneumoniae 217 expressing erm gene by NCCLS method; assay type: functional
Streptococcus pneumoniae [17] = experiment: Antibacterial activity against Streptococcus pneumoniae 6303 by NCCLS method; assay type: functional
Haemophilus influenzae = experiment: Antibacterial activity against Haemophilus influenzae 38 by NCCLS method; assay type: functional

Row | Structure (SMILES) | MIC (Streptococcus pneumoniae [1]) [µg/mL] | MIC (Streptococcus pneumoniae [2]) [µg/mL] | MIC (Streptococcus pneumoniae [3]) [µg/mL] | MIC (Streptococcus pneumoniae [4]) [µg/mL] | MIC (Streptococcus pneumoniae [5]) [µg/mL] | MIC (Streptococcus pyogenes) [µg/mL] | MIC (Streptococcus pneumoniae [6]) [µg/mL] | MIC (Streptococcus pneumoniae [7]) [µg/mL] | MIC (Streptococcus pneumoniae [8]) [µg/mL] | MIC (Streptococcus pneumoniae [9]) [µg/mL] | MIC (Moraxella catarrhalis) [µg/mL] | MIC (Streptococcus pneumoniae [10]) [µg/mL] | MIC (Streptococcus pneumoniae [11]) [µg/mL] | MIC (Streptococcus pneumoniae [12]) [µg/mL] | MIC (Streptococcus pneumoniae [13]) [µg/mL] | Activity (Streptococcus pneumoniae [14]) | MIC (Streptococcus pneumoniae [15]) [µg/mL] | MIC (Streptococcus pneumoniae [16]) [µg/mL] | MIC (Streptococcus pneumoniae [17]) [µg/mL] | MIC (Haemophilus influenzae) [µg/mL]
1 | C=CCN(C)[C@H]1C[C@@H](C)O[C@@H](O[C@@H]2[C@@H](C)[C@H](OC(=O)Cc3cccnc3)[C@@H](C)C(=O)O[C@H](CC)[C@@]3(C)OC(=O)N(CCCCn4cnc5ncccc54)[C@@H]3[C@@H](C)C(=O)[C@H](C)C[C@@]2(C)OC)[C@@H]1O | 1 (≈ 1.07 µM) | 1 (≈ 1.07 µM) | 1 (≈ 1.07 µM) | 0.5 (≈ 0.536 µM) | 0.06 (≈ 0.0643 µM) | 0.06 (≈ 0.0643 µM) | 0.5 (≈ 0.536 µM) | 0.5 (≈ 0.536 µM) | 0.125 (≈ 0.134 µM) | 0.25 (≈ 0.268 µM) | 0.06 (≈ 0.0643 µM) | 0.25 (≈ 0.268 µM) | 0.25 (≈ 0.268 µM) | 0.5 (≈ 0.536 µM) | 0.03 (≈ 0.0321 µM) | Active | 0.125 (≈ 0.134 µM) | 0.5 (≈ 0.536 µM) | 0.06 (≈ 0.0643 µM) | 0.125 (≈ 0.134 µM)
2 | C=CCN(C)[C@H]1C[C@@H](C)O[C@@H](O[C@@H]2[C@@H](C)[C@H](OC(=O)Cc3ccccn3)[C@@H](C)C(=O)O[C@H](CC)[C@@]3(C)OC(=O)N(CCCCn4cnc(-c5ccco5)c4)[C@@H]3[C@@H](C)C(=O)[C@H](C)C[C@@]2(C)OC)[C@@H]1O | 0.125 (≈ 0.132 µM) | 2 (≈ 2.11 µM) | 4 (≈ 4.22 µM) | 1 (≈ 1.05 µM) | 0.125 (≈ 0.132 µM) | 0.03 (≈ 0.0316 µM) | 2 (≈ 2.11 µM) | 2 (≈ 2.11 µM) | 0.25 (≈ 0.264 µM) | 0.5 (≈ 0.527 µM) | 0.25 (≈ 0.264 µM) | 0.25 (≈ 0.264 µM) | 0.5 (≈ 0.527 µM) | 2 (≈ 2.11 µM) | 0.03 (≈ 0.0316 µM) | Active | 0.25 (≈ 0.264 µM) | 1 (≈ 1.05 µM) | 0.06 (≈ 0.0633 µM) | < 0.06
